Results on one compound are retold here after patent US20240254547A1, “HIGHLY ACCURATE […]” (KAO CORPORATION, priority 2018, published 2024).

Series [1] has as its system TA100 strain of Salmonella typhimurium (S. typhimurium) LT-2. Kind of series: Ames test (pre-incubation method), number of revertant colonies. In kind it is cell-based. The following applies: for Number of revertant colonies in Ames test, Mean: mean of three plates. The method, then: Exposure of cells to ENU was performed in accordance with the pre-incubation method of the Ames test (K. Mortelmans et al. Mutat. Res.—Fundam. Mol. Mech. Mutagen. 455:29-60, 2000). TA100 strain was seeded in 2 mL of Nutrient Broth No. 2 (produced by Oxoid Limited), and subjected to shaking culture at 37° C. and 180 rpm for 4 hours to afford pre-culture solution with an O.D.660 value of 1.0 or higher. ENU (produced by Sigma-Aldrich Co. LLC.) was diluted with dimethylsulfoxide (DMSO; produced by Wako Pure Chemical Industries, Ltd.). Into test tubes, 100 μL of the ENU solution, 500 μL of 0.1 M phosphate buffer, and 100 μL of the pre-culture solution were added (amount of ENU: 62.5, 125, 250, 500, and 1,000 μg/tube), and the resultants were subjected to shaking culture at 100 rpm in a water bath at 37° C. for 20 minutes (ENU group). For a control group, 100 μL of solvent (DMSO) was added instead of the ENU solution. After shaking culture for 20 minutes, the test tubes each containing a culture solution were taken out of the water bath, and 50 μL of each culture solution was added to 2 mL of Nutrient Broth solution aliquoted in advance, and the resultant was further cultured in an incubator at 37° C. and 180 rpm for 14 hours, from which the bacterial suspensions were then collected and centrifuged at 7,500 rpm for 5 minutes, and the supernatants were removed to collect the bacterial cells.
For the Ames test, a bacterial suspension exposed to ENU by using the pre-incubation method was produced under the above-described conditions, and 2 mL of top agar (containing 1% NaCl, 1% agar, 0.05 mM histidine, and 0.05 mM biotine) warmed to 45° C. was added thereto and the resultant was suspended by using a Vortex, and poured onto a minimal glucose agar medium (Tesmedia® AN; produced by Oriental Yeast Co., Ltd.) to form a layer. The resulting plate was subjected to culturing at 37° C. for 48 hours, and the number of colonies observed was counted.
For orientation: In the Ames test, an excess of revertant colonies over the control signals mutagenicity.

The next series deals with gpt gene. Kind of series: gpt-assay, gene mutation frequency (OECD TG488). It counts as in vivo, mouse (C57BL/6JJmsSlc-Tg (gpt delta)). The following applies: bone marrow. As for the experimental part:
Male TG mice which were 7 to 9 weeks old at initiation of administration were used. ENU (produced by Toronto Research Chemicals, Inc.) was dissolved in saline to a concentration of 15.0 mg/mL. By using a plastic syringe and a 25 G injection needle, […] was intraperitoneally administered to the mice once per day (ENU 150 mg/kg/day) for 5 days (ENU group). Saline was administered to a control group. Seven days after the final administration, the animals were each euthanized to resect the femur, and genomic DNA was extracted from the bone marrow by using a REcoverEase DNA Isolation Kit (produced by Agilent Technologies) in accordance with the recommended protocol. The double-stranded DNA concentration of the resulting DNA was measured by using a Qubit3.0 Fluorometer (produced by Thermo Fisher Scientific) with a Qubit™ dsDNA BR Assay Kit attached thereto.
DNA was extracted from the bone marrow of each of the mice obtained in 1) by using phenol/chloroform. For the extract DNA, gene mutation frequency was calculated by using the gpt gene introduced into each TG mouse in accordance with OECD Guidelines for the Testing of Chemicals 488 (OECD TG488) (gpt-assay). […] From the number of colonies formed on the selective medium (mutant colonies) and the number of colonies formed on the medium for titer determination (total colonies), mutation frequency (*10^−6) was calculated. […]

As to `CCN(N=O)C(N)=O` [ENU, ethylnitrosourea], the “Number of revertant colonies after exposure to ENU versus DMSO control” value in series [1] (62.5 to 1,000 μg/plate) is “increase”. Moreover, the “Number of revertant colonies in Ames test, Mean” value is recorded as 207.3 in series [1] (ENU 62.5 μg/plate); 381.3 in series [1] (ENU 125 μg/plate); 1389.0 in series [1] (ENU 250 μg/plate); 3960.7 in series [1] (ENU 500 μg/plate); 2534.0 in series [1] (ENU 1000 μg/plate). Further, the “Number of revertant colonies in Ames test” value in series [1] (ENU 62.5 μg/plate, plate 1) is 220; in series [1] (ENU 62.5 μg/plate, plate 2), 192; in series [1] (ENU 62.5 μg/plate, plate 3), 210; in series [1] (ENU 125 μg/plate, plate 1), 430; in series [1] (ENU 125 μg/plate, plate 2), 391; in series [1] (ENU 125 μg/plate, plate 3), 323. The “Number of revertant colonies in Ames test” value was found to be 1482 in series [1] (ENU 250 μg/plate, plate 1); 1359 in series [1] (ENU 250 μg/plate, plate 2); 1326 in series [1] (ENU 250 μg/plate, plate 3); 4095 in series [1] (ENU 500 μg/plate, plate 1); 4006 in series [1] (ENU 500 μg/plate, plate 2); 3751 in series [1] (ENU 500 μg/plate, plate 3). Further, the “Number of revertant colonies in Ames test” value in series [1] (ENU 1000 μg/plate, plate 1) is 1659; in series [1] (ENU 1000 μg/plate, plate 2), 3206; in series [1] (ENU 1000 μg/plate, plate 3), 2737. Moreover, the “Mean Mutant Frequency (gpt-assay)” value in the series with gpt gene (ENU 150 mg/kg/day intraperitoneally for 5 days, n=4) was 126.33 *10^−6. The “Gene mutation frequency (gpt-assay) versus control group” value in the series on gpt gene (ENU 150 mg/kg/day) is “Significant increase”.
